In brackets after ≈: the same amount, converted by molar mass. Counter-ions that a name gives are not always drawn. Like-named read-outs stand apart in the source and are kept apart here.
What was measured:
SARS-CoV-2 coronavirus = assay: Activity against SARS-CoV-2 coronavirus on U2-OS ACE2 cells (S-Fuse, GFP signal); type: cell-based; settings: Severe acute respiratory syndrome coronavirus 2, U2OS; SARS-CoV-2, U2-OS ACE2 cells, MOI 0.1, 20 hours
[1] = Cytotoxicity, microtetrazolium test (MTT); settings: dog, MDCK cells, CC50 (MDCK), mean ±SD
U2-OS ACE2 cells = assay: Cytotoxicity on U2-OS ACE2 cells (Hoechst signal); settings: 20 hours
[2] = Acute oral toxicity, fixed dose method (OECD 420); settings: for GHS hazard class: acute oral toxicity in mice, UN GHS classification; for Died / Survived: female BALB/c mice, intragastric
MDCK cells [3] = assay: Cytotoxicity, microtetrazolium test (MTT); settings: 48 h, mean ±SD
MDCK cells [4] = system: MDCK cells

Compound	CC50 at 48 h [1] [µg/mL]	melting point [°C]	further results
COC(=O)c1c(N(Cc2ccccc2)C(C)=O)sc2cc(O)ccc12 [Example 4, Methyl 2-[acetyl(benzyl)amino]-6-hydroxy-1-benzothiophene-3-carboxylate]	200 (≈ 563 µM)	165 to 167	IC50 (SARS-CoV-2 coronavirus): 10.6 µM; Cytotoxicity (U2-OS ACE2 cells): Non-toxic up to 2500 μM
COC(=O)c1c(N(Cc2ccccc2F)C(C)=O)sc2c(Cl)c(O)ccc12 [Example 23, Methyl 2-[acetyl(2-fluorobenzyl)amino]-7-chloro-6-hydroxy-1-benzothiophene-3-carboxylate]	> 300		GHS hazard class [2]: 5; Died ([2]; 2000 mg/kg): 0; Survived ([2]; 2000 mg/kg): 4
COC(=O)c1c(N(Cc2ccccc2)C(C)=O)sc2c(CN(C)C)c(O)ccc12 [Example 50, Methyl 2-[acelyl (benzyl)amino-7-[(dimethylamino)methyl]-6-hydroxy-1-benzothiophene-3-carboxylate]	182 (≈ 441 µM)		IC50 (SARS-CoV-2 coronavirus): 9.08 µM; Cytotoxicity (U2-OS ACE2 cells): Non-toxic up to 2500 μM
COC(=O)c1c(N(Cc2ccccc2F)C(C)=O)sc2c(CN(C)C)c(O)ccc12 [Example 52]	180 ± 16 (≈ 418 µM)		GHS hazard class [2]: 5; Died ([2]; 2000 mg/kg): 0; Survived ([2]; 2000 mg/kg): 4
COC(=O)c1c(N(Cc2ccc(F)cc2F)C(C)=O)sc2c(CN(C)C)c(O)ccc12 [Example 55]	> 300	118 to 122	IC50 (SARS-CoV-2 coronavirus): 15.6 µM; Cytotoxicity (U2-OS ACE2 cells): Non-toxic up to 2500 μM
COC(=O)c1c(N(CCc2ccccc2F)C(C)=O)sc2c(CN(C)C)c(O)ccc12 [Example 56, Methyl 2-{acetyl[2-(2-fluorophenyl)ethyl]amino}-7-[(dimethylamino)methyl]-6-hydroxy-1-benzothiophene-3-carboxylate]	> 300	114 to 120	
COC(=O)c1c(N(Cc2ccccc2C)C(C)=O)sc2c(CN(C)C)c(O)ccc12 [Example 58]	> 300	155 to 160	
COC(=O)c1c(N(Cc2ccccc2C(F)(F)F)C(C)=O)sc2c(CN(C)C)c(O)ccc12 [Example 59]	> 300	184 to 188	
COC(=O)c1c(N(Cc2ccccc2C#N)C(C)=O)sc2c(CN(C)C)c(O)ccc12 [Example 60]	> 300	178 to 182	
COC(=O)c1c(N(Cc2ccccc2)C(C)=O)sc2c(CN(C)C)c(O)ccc12 [Example 61, Methyl 2-[acetyl(benzyl)amino-7-[(dimethylamino)methyl]-6-hydroxy-1-benzothiophene-3-carboxylate hydrochloride]			GHS hazard class [2]: 4; Died ([2]; 300 mg/kg): 0; Survived ([2]; 300 mg/kg): 4; Died ([2]; 2000 mg/kg): 1; Survived ([2]; 2000 mg/kg): 1; CC50 (MDCK) (MDCK cells [3]; hydrochloride): >300 µg/mL
COC(=O)c1c(N(Cc2ccc(F)cc2)C(C)=O)sc2c(CN(C)C)c(O)ccc12 [Example 62, Methyl 2-[acetyl(4-fluorobenzyl)amino-7-[(dimethylamino)methyl]-6-hydroxy-1-benzothiophene-3-carboxylate hydrochloride]	92 ± 7		IC50 (SARS-CoV-2 coronavirus): 11.3 µM; Cytotoxicity (U2-OS ACE2 cells): Non-toxic up to 2500 μM
CCN(CC)Cc1c(O)ccc2c(C(=O)OC)c(N(Cc3ccccc3)C(C)=O)sc12 [Example 64, hydrochloride]	148 ± 11		IC50 (SARS-CoV-2 coronavirus): 9.12 µM; Cytotoxicity (U2-OS ACE2 cells): Non-toxic up to 2500 μM
COC(=O)c1c(N(Cc2ccccc2)C(C)=O)sc2c(CN3CCN(C)CC3)c(O)ccc12 [Example 65, Methyl 2-[acetyl(benzyl)amino-6-hydroxy-7-[(4-methylpiperazin-1-yl)methyl]-1-benzothiophene-3-carboxylate hydrochloride]	18.7 ± 1.6		IC50 (SARS-CoV-2 coronavirus): 9.8 µM; Cytotoxicity (U2-OS ACE2 cells): Non-toxic up to 2500 μM
CC(=O)N(Cc1ccccc1)c1sc2c(Cl)c(O)ccc2c1C(=O)O [Example 66, 2-[acetyl(benzyl)amino]-7-chloro-6-hydroxy-1-benzothiophene-3-carboxylic acid]	> 300	240 to 245	
CC(=O)N(Cc1ccccc1)c1sc2cc(O)ccc2c1C(=O)O [Example 67, 2-[acetyl(benzyl)amino]-6-hydroxy-1-benzothiophene-3-carboxylic acid]	> 300	130 to 135	
CC(=O)N(Cc1ccccc1Cl)c1sc2c(Cl)c(O)ccc2c1C(=O)O [Example 68, 2-[acetyl(2-chlorobenzyl)amino]-7-chloro-6-hydroxy-1-benzothiophene-3-carboxylic acid]	65 ± 4 (≈ 158 µM)	265 to 270	

Compound	CC50 at 48 h [1] [µg/mL]	melting point [°C]	further results
CC(=O)N(Cc1ccc(F)cc1F)c1sc2c(Cl)c(O)ccc2c1C(=O)O [Example 71, 2-[acetyl(2,4-difluorobenzyl)amino]-7-chloro-6-hydroxy-1-benzothiophene-3-carboxylic acid]	210 ± 16 (≈ 510 µM)	238 to 242	
CNC(=O)c1c(N(Cc2ccccc2)C(C)=O)sc2c(Cl)c(O)ccc12 [Example 72, 2-[acetyl(benzyl)amino]-7-chloro-6-hydroxy-N-methyl-1-benzothiophene-3-carboxamide]	160 ± 11 (≈ 411 µM)		GHS hazard class [2]: 5; Died ([2]; 2000 mg/kg): 0; Survived ([2]; 2000 mg/kg): 4
CNC(=O)c1c(N(Cc2ccccc2)C(C)=O)sc2cc(O)ccc12 [Example 73, 2-[acetyl(benzyl)amino]-6-hydroxy-N-methyl-1-benzothiophene-3-carboxamide]	> 300		GHS hazard class [2]: 5; Died ([2]; 2000 mg/kg): 0; Survived ([2]; 2000 mg/kg): 4; IC50 (SARS-CoV-2 coronavirus): 23 µM; Cytotoxicity (U2-OS ACE2 cells): Non-toxic up to 2500 μM
CNC(=O)c1c(N(Cc2ccccc2Cl)C(C)=O)sc2c(Cl)c(O)ccc12 [Example 74, 2-[acetyl(2-chlorobenzyl)amino]-7-chloro-6-hydroxy-N-methyl-1-benzothiophene-3-carboxamide]	32 ± 4 (≈ 75.6 µM)	200 to 202	
CNC(=O)c1c(N(Cc2ccccc2F)C(C)=O)sc2c(Cl)c(O)ccc12 [Example 75, 2-[acetyl(2-fluorobenzyl)amino]-7-chloro-6-hydroxy-N-methyl-1-benzothiophene-3-carboxamide]	28 ± 4 (≈ 68.8 µM)	108 to 112	
CNC(=O)c1c(N(Cc2ccccc2F)C(C)=O)sc2cc(O)ccc12 [Example 76, 2-[acetyl(2-fluorobenzyl)amino]-6-hydroxy-N-methyl-1-benzothiophene-3-carboxamide]	> 300	105 to 112	
CNC(=O)c1c(N(Cc2ccc(F)cc2)C(C)=O)sc2c(Cl)c(O)ccc12 [Example 77]	32.2 ± 2.4 (≈ 79.1 µM)	192 to 195	
CNC(=O)c1c(N(Cc2ccc(F)cc2F)C(C)=O)sc2c(Cl)c(O)ccc12 [Example 78, 2-[acetyl(2,4-difluorobenzyl)amino]-7-chloro-6-hydroxy-N-methyl-1-benzothiophene-3-carboxamide]	68 ± 5 (≈ 160 µM)	125 to 130	
CCNC(=O)c1c(N(Cc2ccccc2)C(C)=O)sc2cc(O)ccc12 [Example 79, 2-[acetyl(benzyl)amino]-6-hydroxy-N-ethyl-1-benzothiophene-3-carboxamide]	250 ± 21 (≈ 679 µM)	138 to 142	
CCCNC(=O)c1c(N(Cc2ccccc2)C(C)=O)sc2cc(O)ccc12 [Example 80, 2-[acetyl(benzyl)amino]-6-hydroxy-N-propyl-1-benzothiophene-3-carboxamide]	240 ± 16 (≈ 627 µM)	85 to 90	
CC(=O)N(Cc1ccccc1)c1sc2cc(O)ccc2c1C(N)=O [Example 81, 2-[acetyl(benzyl)amino]-6-hydroxy-1-benzothiophene-3-carboxamide]	251 ± 19 (≈ 737 µM)	110 to 115	
CC(=O)N(Cc1ccccc1)c1sc2c(Cl)c(O)ccc2c1C(=O)N1CCCCC1 [Example 82, N-benzyl-N-[7-chloro-6-hydroxy-3-(piperidin-1-ylcarbonyl)-1-benzothien-2-yl]acetamide]	16.3 ± 0.8 (≈ 36.8 µM)	95 to 100	
CNC(=O)c1c(N(Cc2ccccc2F)C(C)=O)sc2c(CN(C)C)c(O)ccc12 [Example 84, 2-[acetyl(2-fluorobenzyl)amino]-7-[(dimethylamino)methyl]-6-hydroxy-N-methyl-1-benzothiophene-3-carboxamide]	> 300	122 to 126	
CSc1nc2nnc([N+](=O)[O-])c(=O)n2[nH]1 [Triazavirin, Methylthionitrooxodihydro-triazolotriazinide sodium]			CC50 (MDCK) (MDCK cells [4]): 298 ± 22 µg/mL
CCOC(=O)c1c(CSc2ccccc2)n(C)c2cc(Br)c(O)c(CN(C)C)c12 [Umifenovir, reference compound]	16 (≈ 33.5 µM)		IC50 (SARS-CoV-2 coronavirus): 76 µM; Cytotoxicity (U2-OS ACE2 cells): Non-toxic up to 2500 μM
Pentandioic acid imidazolylethanamide [Ingavirin, reference compound]			CC50 (MDCK) (MDCK cells [3]): 300 ± 12 µg/mL

From US20240174629A1 (OTCPHARM JSC, priority 2021, published 2024)
